Results published in ChEMBL document CHEMBL1129890, “Synthesis and evaluation of dual action cephalosporins as elastase inhibitors” (Bioorg Med Chem Lett, 1997).

Assays:
[1] = Steady state velocity of inhibitor concentration required to inhibit porcine pancreatic elastase was determined by using Lineweaver-Burke Plot; design: species or system Sus scrofa
[2] = Hydrolytic stability was expressed as t1/2; assay type: physicochemical
[3] = Steady state velocity of inhibitor concentration required to inhibit porcine pancreatic elastase was determined by using Dixon Plot; design: species or system Sus scrofa

IC50 [1] [nM] | half-life [2] [h] | IC50 [3] [nM] | SMILES
110 | 60 |  | CO[C@H]1C(=O)N2C(C(=O)OC(C)(C)C)=C(COC(=O)Cc3ccccc3Nc3c(Cl)cccc3Cl)CS(=O)(=O)C12 (some centres undefined)
73000 |  | 11000 | CO[C@H]1C(=O)N2C(C(=O)OC(C)(C)C)=C(C)CS(=O)(=O)C12 (some centres undefined)
180 | 73 | 680 | CC(C)(C)OC(=O)C1=C(COC(=O)Cc2ccccc2Nc2c(Cl)cccc2Cl)CS(=O)(=O)C2[C@@H](Cl)C(=O)N12 (some centres undefined)
250 | 2.3 | 350 | CC(=O)Oc1ccccc1C(=O)OCC1=C(C(=O)OC(C)(C)C)N2C(=O)[C@H](Cl)C2S(=O)(=O)C1 (some centres undefined)
35000 |  | 11000 | CC1=C(C(=O)OC(C)(C)C)N2C(=O)[C@H](Cl)C2S(=O)(=O)C1 (some centres undefined)
110 | 19 |  | CO[C@H]1C(=O)N2C(C(=O)OC(C)(C)C)=C(COC(=O)c3ccccc3OC(C)=O)CS(=O)(=O)C12 (some centres undefined)
